Read-outs that look alike come from different tables or passages of the source. Where only a bound is given, the exact number is not on record here.

Holding throughout (type): cell-based
One test deals with T1, SLC6A8 (Homo sapiens, UniProt P48029).
T1 construct: expressed in transfected cells; host or cells: Jump In T-REx HEK293 (general cell-line paragraph)
T1 sequence (P48029 1-635): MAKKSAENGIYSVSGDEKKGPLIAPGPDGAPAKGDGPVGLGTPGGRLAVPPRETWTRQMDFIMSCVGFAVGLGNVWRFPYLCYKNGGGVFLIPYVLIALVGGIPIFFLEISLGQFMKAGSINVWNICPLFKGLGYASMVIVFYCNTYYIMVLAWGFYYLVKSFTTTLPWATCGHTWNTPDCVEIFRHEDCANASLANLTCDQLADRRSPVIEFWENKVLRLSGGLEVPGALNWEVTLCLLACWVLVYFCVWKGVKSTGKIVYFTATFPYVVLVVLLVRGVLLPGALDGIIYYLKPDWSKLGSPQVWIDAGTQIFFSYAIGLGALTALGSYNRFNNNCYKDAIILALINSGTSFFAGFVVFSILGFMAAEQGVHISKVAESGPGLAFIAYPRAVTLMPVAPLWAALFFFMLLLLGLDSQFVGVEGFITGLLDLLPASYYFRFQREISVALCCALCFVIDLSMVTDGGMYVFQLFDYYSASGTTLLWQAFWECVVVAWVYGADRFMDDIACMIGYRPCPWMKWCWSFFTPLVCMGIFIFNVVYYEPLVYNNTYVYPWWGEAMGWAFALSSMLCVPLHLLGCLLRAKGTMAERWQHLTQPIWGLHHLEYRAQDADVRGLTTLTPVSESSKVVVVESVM
The test is described as follows: RESOLUTE assay on SLC6A8. Here is the method:
(§1) FLIPR Membrane Potential Blue Dye was used to detect the compound activities for those membrane transporters that are electrogenic or whose activity is associated with changes in membrane potential, as previously described ([Jensen and BräunerOsborne, 2004]). In brief, cells are seeded at cell line-specific density in black clear-bottom poly-D-Lysine-coated 384-well plates (Greiner Bio-One) in DMEM high-glucose medium with 10% FBS, 1% P/S, and 2 mM UltraGlutamine I (25 µL/well). Furthermore, 24 h after seeding, the culture medium is removed, and the cells are loaded with 20 µL/well of 0.5 X FMP Blue Dye in assay buffer (modified Tyrode’s buffer, 130 mM NaCl, 5 mM KCl, 1 mM MgCl2, 2 mM CaCl2, 5 mM NaHCO3, and 20 mM HEPES pH 7.4). The plates are subsequently incubated for at least 30 min at room temperature in the dark. Then, 10 µL/well of test compounds and controls is added at defined concentrations (0.5% DMSO final conc.) in the FLIPR TETRA instrument (Molecular Devices), and emitted fluorescence is recorded using a λexc 510–545-nm/λem 565–625-nm filter. The dose–response curves for the 19 compounds were prepared starting from 3 µM (final top concentration), the half-log serial dilution factor. For data analysis, Genedata Screener 19.0 software was used.
(§2) The robust Z prime factor (RZ’ factor) was calculated with the following formula: RZ^′=1−3∗RSDMAX+RSDMIN/AbsMAX − MIN, where the RZ’ factor is based on the same formula as the Z′ factor ([Zhang et al., 1999]) but standard deviations and means are replaced by the robust standard deviations and medians, respectively. Curve fitting profiles were performed on each dose–response curve with the analyzer module of Genedata Screener 19.0 on % activity.

Another test addresses T2, SLC23A1 (Homo sapiens, UniProt Q9UHI7).
T2 construct: expressed in transfected cells; host or cells: Jump In T-REx HEK293 (general cell-line paragraph)
The test is described as follows: RESOLUTE assay on SLC23A1. As to the method:
as §1, §2

Another test concerns the target T3, SLC1A1 (Homo sapiens, UniProt P43005).
T3 sequence (P43005 1-524): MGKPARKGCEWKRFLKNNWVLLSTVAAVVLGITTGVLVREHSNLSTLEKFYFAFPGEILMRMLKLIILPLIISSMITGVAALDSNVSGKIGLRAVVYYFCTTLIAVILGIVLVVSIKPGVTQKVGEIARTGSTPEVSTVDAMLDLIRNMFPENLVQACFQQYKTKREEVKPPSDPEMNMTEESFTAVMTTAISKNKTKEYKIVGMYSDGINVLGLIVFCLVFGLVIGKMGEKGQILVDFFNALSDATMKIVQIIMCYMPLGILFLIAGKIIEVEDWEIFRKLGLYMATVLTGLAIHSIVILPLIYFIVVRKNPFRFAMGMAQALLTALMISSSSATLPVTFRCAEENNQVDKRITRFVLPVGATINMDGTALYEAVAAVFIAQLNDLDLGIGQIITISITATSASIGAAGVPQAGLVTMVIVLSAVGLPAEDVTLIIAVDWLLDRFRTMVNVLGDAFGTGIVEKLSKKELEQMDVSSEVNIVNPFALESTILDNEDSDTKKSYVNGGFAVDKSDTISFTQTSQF
The test is described as follows: Echo-MS assay, uptake of labeled glutamic acid in dox-induced HEK293–JumpIn–SLC1A1 (EAAT3) cells. More on the design: expressed in transfected cells; host or cells: Jump In T-REx HEK293.

In a further test the target is T4, SLC22A3 (OCT3) (Homo sapiens, UniProt O75751).
T4 construct: expressed in transfected cells; host or cells: Jump In T-REx HEK293
T4 sequence (O75751 1-556): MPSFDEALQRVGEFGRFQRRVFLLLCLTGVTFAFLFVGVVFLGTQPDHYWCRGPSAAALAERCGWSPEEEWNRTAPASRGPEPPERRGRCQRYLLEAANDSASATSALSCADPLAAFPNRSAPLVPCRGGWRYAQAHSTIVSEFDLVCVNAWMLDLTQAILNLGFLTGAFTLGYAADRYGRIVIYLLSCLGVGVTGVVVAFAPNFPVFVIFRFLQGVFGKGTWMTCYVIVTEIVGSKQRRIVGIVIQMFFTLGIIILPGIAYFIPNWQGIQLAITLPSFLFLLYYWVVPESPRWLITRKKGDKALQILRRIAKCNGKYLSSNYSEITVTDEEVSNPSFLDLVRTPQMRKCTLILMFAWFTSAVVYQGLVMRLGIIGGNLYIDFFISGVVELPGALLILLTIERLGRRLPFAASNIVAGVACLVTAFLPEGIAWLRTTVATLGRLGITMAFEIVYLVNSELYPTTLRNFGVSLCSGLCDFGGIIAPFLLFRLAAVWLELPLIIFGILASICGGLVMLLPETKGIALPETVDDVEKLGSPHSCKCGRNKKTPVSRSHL
The test is described as follows: Impedance-based MPP+ transport assay, HEK293–JumpIn–OCT3 cells.

Setting [1] is: target SLC6A8, Flipr Membrane Potential-Blue-Dye, read-out: pIC50 (act) (converted).
The mark [2] stands for this setting: Flipr Membrane Potential-Blue-Dye, read-out: pIC50 (act), SLC23A1 (converted).
Where [3] appears, read: target SLC1A1, assay EchoMS, read-out: pIC50 (act) (converted).
[4] abbreviates: phenotypic, read-out: pIC50 (act), SLC22A3 (converted).
[5] abbreviates: dox-induced HEK293–JumpIn–SLC1A1 cells, top conc. 30 µM, read-out: pIC50, SLC1A1, EchoMS (converted).

T2 sequence (Q9UHI7 whole entry): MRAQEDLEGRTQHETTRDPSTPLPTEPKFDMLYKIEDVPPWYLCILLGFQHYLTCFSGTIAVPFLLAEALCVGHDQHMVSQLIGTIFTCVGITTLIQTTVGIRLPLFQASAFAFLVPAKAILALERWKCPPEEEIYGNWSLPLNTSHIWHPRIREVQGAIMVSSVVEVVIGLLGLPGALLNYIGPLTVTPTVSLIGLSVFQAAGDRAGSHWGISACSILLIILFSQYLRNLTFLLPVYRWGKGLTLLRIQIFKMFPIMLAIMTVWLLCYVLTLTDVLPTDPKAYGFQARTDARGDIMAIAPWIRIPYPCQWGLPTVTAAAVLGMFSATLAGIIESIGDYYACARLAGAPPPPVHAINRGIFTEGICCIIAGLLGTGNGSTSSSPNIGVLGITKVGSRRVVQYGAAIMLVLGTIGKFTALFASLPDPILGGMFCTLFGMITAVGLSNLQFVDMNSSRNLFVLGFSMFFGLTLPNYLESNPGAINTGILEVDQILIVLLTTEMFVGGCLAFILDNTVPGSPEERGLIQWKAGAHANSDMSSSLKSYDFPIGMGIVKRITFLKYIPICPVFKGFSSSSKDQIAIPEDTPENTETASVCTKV
Procedure for SLC1A1: Before the Echo-MS experiment, 15,000 cells per well were seeded into the wells of a 384-well plate (Beckman Coulter) and induced with 1 μg/μL doxycycline. […] The next day, compounds with stock solutions of 10 mM were first diluted to a final concentration of 90 µM before starting a 10-stage dilution series with a dilution factor of 1:3 with the CyBio FeliX pipetting robot. After the supernatant in the plate of the cell plate assay was discarded (BlueWasher, BlueCatBio), 10 µL of potassium/wash buffer including the compound dilution series was transferred by the pipetting robot (FeliX, CyBio), yielding a highest final concentration of 30 µM compound per well. […] After 30 min on the shaker at 500 rpm, the plates were centrifuged for 20 min at 2,000 rpm. Finally, 40 µL/well was transferred on qualified 384-well plates and then measured with Echo-MS/ADE-MS (Sciex). ADE-MS measurements were performed on an ADE-MS device (Sciex) operated with Sciex OS software (version 2.1.6.59781). […] For all samples, an ejection volume of 5 nL (2 droplets) and a repetition rate of 2.5 s/well were used. Triple Quad 6500+ was operated in a positive mode using the following settings: vaporizer temperature 450°C, spray voltage 5500 V, ion source gas 1: 90 psi, ion source gas 2: 70 psi, curtain gas 20 psi, CAD gas 9 psi, dwell time 95 m, DP 35 V, EP 10 V, CE 14 V, and CXP 18 V. Data were processed with Sciex OS and further processed with Genedata Screener (version 19.0.9-Standard). Transporter inhibition by the compounds was tracked by analyzing the MS signal area values of uptaken labeled glutamic acid into the cell. The signal ratio of the reaction product to the respective standard was calculated to diminish variations ascribed to the sample preparation procedure or the MS readout. Average control values were calculated and set to 100% activity (high controls) and 0% activity (low controls), while the response values of compound-containing wells were normalized against the controls and expressed as the percentage of control (PoC).
Procedure for SLC22A3 (OCT3): In short, HEK293–JumpIn–OCT3 (SL22A3) cells were seeded (60.000 cells/well) on an E-plate with 1 μg/mL doxycycline and grown for 22 h using the xCELLigence real-time cell analyzer (RTCA) SP or MP system. […] Changes in cellular morphology were monitored for a total of 2 h.

As for `Cc1c(NC(=O)c2cc(C(N)=O)nc3cc(F)ccc23)c(C(F)(F)F)nn1Cc1ccc(C#N)cc1` [BAY-876], the IC50 on SLC6A8 (setting [1]) is more than 3.16 µM; on SLC23A1 (setting [2]), more than 3.16 µM; on SLC1A1 (setting [3]) it was more than 30 µM.

For the compound `CN1C2CCC1CC(OC(c1ccccc1)c1ccccc1)C2` (stereo not shown) [Benzotropine], the IC50 is more than 3.16 µM on SLC6A8 (setting [1]), more than 3.16 µM at SLC23A1 (setting [2]), more than 10 µM on SLC22A3 (OCT3) (setting [4]) and more than 30 µM on SLC1A1 (setting [3]).

Take `CCNC(=O)/C=C/c1cccc(Br)c1` [Cinromide]: the IC50 is more than 3.16 µM on SLC6A8 (setting [1]), more than 3.16 µM on SLC23A1 (setting [2]), more than 10 µM on SLC22A3 (OCT3) (setting [4]) and more than 30 µM on SLC1A1 (setting [3]).

With `O=S(=O)(O)c1cc(N=C=S)ccc1/C=C/c1ccc(N=C=S)cc1S(=O)(=O)O` [DIDS], the IC50 on SLC6A8 (setting [1]) is more than 3.16 µM; at SLC23A1 (setting [2]), more than 3.16 µM; at SLC22A3 (OCT3) (setting [4]) it was more than 10 µM; at SLC1A1 (setting [5]), 6.31 µM; on SLC1A1 (setting [3]), 5.72 µM.

For `COCCOc1cc(CC2CCN(CCc3ccc4c(c3)C(=O)CCO4)CC2)ccc1Br` [DSP-1053], the IC50 is more than 3.16 µM at SLC6A8 (setting [1]), more than 3.16 µM at SLC23A1 (setting [2]), more than 10 µM at SLC22A3 (OCT3) (setting [4]) and more than 30 µM on SLC1A1 (setting [3]).

In the case of `CNCCCN1c2ccccc2CCc2ccccc21` [Desipramine], the IC50 at SLC6A8 (setting [1]) is more than 3.16 µM; at SLC23A1 (setting [2]) it was more than 3.16 µM; on SLC22A3 (OCT3) (setting [4]), more than 10 µM; on SLC1A1 (setting [3]) it was more than 30 µM.

With `CC(C)[C@H]1CN[C@H](C(=O)O)[C@H]1CC(=O)O` [Dihydrokainate], the IC50 is more than 3.16 µM on SLC6A8 (setting [1]), more than 3.16 µM at SLC23A1 (setting [2]), more than 10 µM at SLC22A3 (OCT3) (setting [4]) and more than 10 µM at SLC1A1 (setting [3]).

On to `N#Cc1ccc(Nc2cnccc2SCc2ccccc2C(=O)O)c2ccccc12` [KPH2f], for which the IC50 was more than 3.16 µM on SLC6A8 (setting [1]); more than 3.16 µM at SLC23A1 (setting [2]); more than 10 µM on SLC22A3 (OCT3) (setting [4]); 1 µM at SLC1A1 (setting [5]); 0.894 µM at SLC1A1 (setting [3]).

As to `C=C(C)[C@H]1CN[C@H](C(=O)O)[C@H]1CC(=O)O` [Kainic acid], the IC50 against SLC6A8 was more than 3.16 µM; against SLC23A1, more than 3.16 µM; against SLC22A3 (OCT3) it was more than 10 µM; at SLC1A1, more than 10 µM.

For the compound `CCOC(=O)N1CCC(=C2c3ccc(Cl)cc3CCc3cccnc32)CC1` [Loratadine], the IC50 was more than 3.16 µM on SLC6A8 (setting [1]), more than 3.16 µM on SLC23A1 (setting [2]) and more than 10 µM at SLC22A3 (OCT3) (setting [4]).

Consider `Nc1nc2ccc(OC(F)(F)F)cc2s1` [Riluzole], for which the IC50 was more than 3.16 µM on SLC6A8 (setting [1]), more than 3.16 µM at SLC23A1 (setting [2]), 7.94 µM on SLC1A1 (setting [5]) and 7.25 µM at SLC1A1 (setting [3]).

As to `N[C@H](C(=O)O)[C@H](OCc1cccc(NC(=O)c2ccc(C(F)(F)F)cc2)c1)C(=O)O` [TFB-TBOA], the IC50 on SLC6A8 (setting [1]) is more than 3.16 µM; on SLC23A1 (setting [2]) it was more than 3.16 µM; on SLC22A3 (OCT3) (setting [4]) it was more than 10 µM; at SLC1A1 (setting [5]), 0.398 µM; at SLC1A1 (setting [3]), 0.436 µM.

As for `NC(C(=O)O)C(OCc1ccccc1)C(=O)O` (stereo not drawn) [Threo-beta-benzyloxyaspartic acid, Threo-beta-Benzyloxyaspartic acid], the IC50 on SLC6A8 (setting [1]) was more than 3.16 µM; at SLC23A1 (setting [2]), more than 3.16 µM; on SLC22A3 (OCT3) (setting [4]), more than 10 µM; at SLC1A1 (setting [3]), more than 10 µM.

`Cc1ccsc1C(=CCCN1CCC[C@@H](C(=O)O)C1)c1sccc1C` [Tiagabine]: the IC50 on SLC6A8 (setting [1]) was more than 3.16 µM; at SLC23A1 (setting [2]), more than 3.16 µM; at SLC22A3 (OCT3) (setting [4]), more than 10 µM; on SLC1A1 (setting [3]) it was more than 30 µM.

With `COc1ccc(C2C(C#N)=C(N)OC3=C2C(=O)CC(c2cccc4ccccc24)C3)cc1` (stereo not shown) [UCPH-101], the IC50 was more than 3.16 µM at SLC6A8 (setting [1]), more than 3.16 µM at SLC23A1 (setting [2]), more than 10 µM on SLC22A3 (OCT3) (setting [4]) and more than 10 µM at SLC1A1 (setting [3]).

`CC1C(C#N)=C(N)OC2=C1C(=O)CC(c1cccc3ccccc13)C2` (stereo not shown) [UCPH-102]: the IC50 is more than 3.16 µM at SLC6A8 (setting [1]), more than 3.16 µM on SLC23A1 (setting [2]), more than 10 µM on SLC22A3 (OCT3) (setting [4]) and more than 10 µM at SLC1A1 (setting [3]).

As to `Fc1ccc(C(OCCN2CCN(CCCc3ccccc3)CC2)c2ccc(F)cc2)cc1` [Vanoxerine (GBR12909), Vanoxerine], the IC50 is more than 3.16 µM on SLC6A8 (setting [1]), more than 3.16 µM at SLC23A1 (setting [2]) and more than 10 µM at SLC22A3 (OCT3) (setting [4]).

`N[C@@H](CC(=O)Nc1ccc(Oc2cc(F)c(F)cc2Br)cc1)C(=O)O` [WAY-213613]: the IC50 was more than 3.16 µM at SLC6A8 (setting [1]); more than 3.16 µM at SLC23A1 (setting [2]); more than 10 µM at SLC22A3 (OCT3) (setting [4]); 3.16 µM at SLC1A1 (setting [5]); 3.28 µM at SLC1A1 (setting [3]).

The record behind these values is publication PMC11267547, “Advancing drug discovery through assay development: a survey of tool compounds within the human solute carrier superfamily” (Frontiers in Pharmacology, 2024).
